According to patent US10239851B2 (priority 2014, dated 2019):
Like-named read-outs stand apart in the source and are kept apart here.

Legend:
[1] = In vitro dissociation of the water soluble taxane derivatives in blood plasma of rat; assay type: in vitro ADME, SD rats; details: 37° C.
Method: The obtained water soluble taxane derivatives were formulated as 0.2 mg/ml aqueous solutions. […] After 2 min, 5 min and 10 min of incubation, 0.2 ml of solutions were respectively taken from each of the samples, and added to acetonitrile (0.4 ml) cooled to −20° C. for precipitation of protein.

[2] = In vitro dissociation of the water soluble taxane derivatives in blood plasma of rabbit; assay type: in vitro ADME, New Zealand white rabbits; details: 37° C.
Method: The obtained water soluble taxane derivatives were formulated as 0.2 mg/ml aqueous solutions. […] After 5 min, 20 min and 60 min of incubation, 0.2 ml of solutions were respectively taken from each of the samples, and added to acetonitrile (0.4 ml) cooled to −20° C. for precipitation of protein.

[3] = test system: human prostate cancer PC-3; details: PC-3 xenograft, nude mice; 13 mg/kg, D0 IV, single dose; D20;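 as to Tumor volume (mm^3) (D0): human prostate cancer PC-3 cells implanted under the skin of nude mice to form the xenograft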;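 as to Weight change (%) D6: human prostate cancer PC-3 cells implanted under the skin of nude mice to form the xenograft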
Source text: Test of the inhibitory activity of the water soluble cabazitaxel derivatives on subcutaneously xenografted tumor of human prostate cancer PC-3 in nude mice: evaluating and comparing the inhibitory activity of the water soluble cabazitaxel derivatives and cabazitaxel on subcutaneously xenografted tumor of human prostate cancer PC-3 in nude mice.
Human prostate cancer PC-3 cells were subcutaneously inoculated into nude mice. After the tumor volume reached 100-150 mm^3, the animals were randomly divided into several groups, and administered with the water soluble cabazitaxel derivatives of the present invention and cabazitaxel, respectively once on the same day (D0). The tumor volume was measured 2-3 times per week, the animals were weighed and the data were recorded until day 20 (D20) after grouping.
(§1) The tumor volume (V) was calculated according to the equation: V=½×a×b^2, wherein a and b represent the length and the width, respectively.
(§2) T/C (%)=(T−T0)/(C−C0)×100, wherein T and C represent the tumor volume at the end of the experiment; and T0 and C0 represent the tumor volume at the beginning of the experiment.

[4] = test system: human prostate cancer PC-3; details: PC-3 xenograft, nude mice, 33.6 mg/kg, D0 IV, single dose; for Tumor volume (mm^3) (D0): D0 (baseline at grouping); for Tumor inhibitory percent (%) D20: P(D20)=0.000 vs control;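 as to Tumor volume (mm^3) (D0): human prostate cancer PC-3 cells implanted under the skin of nude mice to form the xenograft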;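 as to Weight change (%) D6: human prostate cancer PC-3 cells implanted under the skin of nude mice to form the xenograft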
Source text: Test of the inhibitory activity of the water soluble docetaxel derivatives on subcutaneously xenografted tumor of human prostate cancer PC-3 in nude mice: evaluating and comparing the inhibitory activity of the water soluble docetaxel derivatives and docetaxel on subcutaneously xenografted tumor of human prostate cancer PC-3 in nude mice.
Human prostate cancer PC-3 cells were subcutaneously inoculated into nude mice. After the tumor volume reached 100-150 mm^3, the animals were randomly divided into several groups, and administered with the water soluble docetaxel derivatives of the present invention and docetaxel, respectively once on the same day (D0). The tumor volume was measured 2-3 times per week, the animals were weighed and the data were recorded until day 20 (D20) after grouping.
as §1, §2

Row | SMILES | dissociation percent ([1]; 2 min) | dissociation percent ([1]; 5 min) | dissociation percent ([1]; 10 min) | dissociation percent ([2]; 5 min) | dissociation percent ([2]; 20 min) | dissociation percent ([2]; 60 min) | T/C (%) D20 [3] | T/C (%) D20 [4] | Tumor volume (mm^3) (D0) [4] | Weight change (%) D6 [4] | Tumor volume (mm^3) (D20) [4] | Tumor inhibitory percent (%) D20 [4]
1 | CO[C@H]1C(=O)[C@]2(C)[C@@H](OC)C[C@H]3OC[C@@]3(OC(C)=O)[C@H]2[C@H](OC(=O)c2ccccc2)[C@]2(O)C[C@H](OC(=O)[C@H](OC(=O)[C@@H](F)CCN(C)C)[C@@H](NC(=O)OC(C)(C)C)c3ccccc3)C(C)=C1C2(C)C.CS(=O)(=O)O [Compound C8, 2′-O-[4-(N,N-dimethyl)amino-2(S)-fluorobutyryl]cabazitaxel methanesulfonate] | 49.4% | 88.4% | 100% | 85.6% | 94.5% | 100% | −66% |  |  |  |  | 
2 | CC(=O)O[C@@]12CO[C@@H]1C[C@H](O)[C@@]1(C)C(=O)[C@H](O)C3=C(C)[C@@H](OC(=O)[C@H](OC(=O)C(F)CCN(C)C)[C@@H](NC(=O)OC(C)(C)C)c4ccccc4)C[C@@](O)([C@@H](OC(=O)c4ccccc4)[C@H]21)C3(C)C.CS(=O)(=O)O (stereo partly drawn) [Compound C6, 2′-O-[4-(N,N-dimethyl)amino-2(R,S)-fluorobutyryl]docetaxel methanesulfonate] | 59.1% | 93.3% | 100% | 76.8% | 97.8% | 100% |  | −76% |  |  |  | 
3 | CC(=O)O[C@@]12CO[C@@H]1C[C@H](O)[C@@]1(C)C(=O)[C@H](O)C3=C(C)[C@@H](OC(=O)[C@H](OC(=O)[C@@H](CCN(C)C)C(F)(F)F)[C@@H](NC(=O)OC(C)(C)C)c4ccccc4)C[C@@](O)([C@@H](OC(=O)c4ccccc4)[C@H]21)C3(C)C.CS(=O)(=O)O [Compound 26, 2′-O-[4-(N,N-dimethyl)amino-2(R)-2-trifluoromethylbutyryl] docetaxel methanesulfonate] |  |  |  |  |  |  |  | −46% |  |  |  | 
4 | CC(=O)O[C@@]12CO[C@@H]1C[C@H](O)[C@@]1(C)C(=O)[C@H](O)C3=C(C)[C@@H](OC(=O)[C@H](OC(=O)[C@H](F)CCN(C)C)[C@@H](NC(=O)OC(C)(C)C)c4ccccc4)C[C@@](O)([C@@H](OC(=O)c4ccccc4)[C@H]21)C3(C)C.CS(=O)(=O)O [Compound C4, 2′-O-[4-(N,N-dimethyl)amino-2(R)-fluorobutyryl]docetaxel methanesulfonate] | 59.2% | 93.4% | 100% | 81.6% | 94.8% | 100% |  | −77% |  |  |  | 
5 | CC(=O)O[C@@]12CO[C@@H]1C[C@H](O)[C@@]1(C)C(=O)[C@H](O)C3=C(C)[C@@H](OC(=O)[C@H](OC(=O)C(F)CCCN(C)C)[C@@H](NC(=O)OC(C)(C)C)c4ccccc4)C[C@@](O)([C@@H](OC(=O)c4ccccc4)[C@H]21)C3(C)C.CS(=O)(=O)O (stereo partly drawn) [Compound 28, 2′-O-[5-(N,N-dimethyl)amino-2(R,S)-fluorovaleryl]docetaxel methanesulfonate] |  |  |  |  |  |  |  | −28% | 118.2 ± 4.8 mm^3 | −15.4% | 41.5 ± 14.7 mm^3 | 64%
6 | CO[C@H]1C(=O)[C@]2(C)[C@@H](OC)C[C@H]3OC[C@@]3(OC(C)=O)[C@H]2[C@H](OC(=O)c2ccccc2)[C@]2(O)C[C@H](OC(=O)[C@H](OC(=O)[C@H](F)CCN(C)C)[C@@H](NC(=O)OC(C)(C)C)c3ccccc3)C(C)=C1C2(C)C.CS(=O)(=O)O [Compound C7, 2′-O-[4-(N,N-dimethyl)amino-2(R)-fluorobutyryl]cabazitaxel methanesulfonate] | 49.7% | 88.9% | 100% | 78.4% | 94.8% | 100% | −67% |  |  |  |  | 
7 | CC(=O)O[C@@]12CO[C@@H]1C[C@H](O)[C@@]1(C)C(=O)[C@H](O)C3=C(C)[C@@H](OC(=O)[C@H](OC(=O)[C@@H](F)CCN(C)C)[C@@H](NC(=O)OC(C)(C)C)c4ccccc4)C[C@@](O)([C@@H](OC(=O)c4ccccc4)[C@H]21)C3(C)C.CS(=O)(=O)O [Compound C5, 2′-O-[4-(N,N-dimethyl)amino-2(S)-fluorobutyryl]docetaxel methanesulfonate] | 58.9% | 93.3% | 100% | 81.2% | 93.1% | 100% |  | −76% |  |  |  | 
8 | CC(=O)O[C@@]12CO[C@@H]1C[C@H](O)[C@@]1(C)C(=O)[C@H](O)C3=C(C)[C@@H](OC(=O)[C@H](OC(=O)[C@@H](F)CCCCN(C)C)[C@@H](NC(=O)OC(C)(C)C)c4ccccc4)C[C@@](O)([C@@H](OC(=O)c4ccccc4)[C@H]21)C3(C)C.O=S(=O)(O)O [Compound 29, 2′-O-[6-(N,N-dimethyl)amino-2(S)-fluorohexanoyl]docetaxel sulfate] |  |  |  |  |  |  |  | −20% | 114.7 ± 3.5 mm^3 | −15.8% | 52.4 ± 12.5 mm^3 | 45%
9 | CC(=O)O[C@@]12CO[C@@H]1C[C@H](O)[C@@]1(C)C(=O)[C@H](O)C3=C(C)[C@@H](OC(=O)[C@H](OC(=O)[C@H](F)CCN(C)C(C)C)[C@@H](NC(=O)OC(C)(C)C)c4ccccc4)C[C@@](O)([C@@H](OC(=O)c4ccccc4)[C@H]21)C3(C)C.Cl [Compound 25, 2′-O-[4-(N-methyl-N-isopropyl)amino-2(R)-fluorobutyryl]docetaxel hydrochloride] |  |  |  |  |  |  |  | −44% |  |  |  | 
10 | CCN(C)CCC(F)C(=O)OC(C(=O)OC1CC2(O)C(OC(=O)c3ccccc3)C3C4(OC(C)=O)COC4CC(O)C3(C)C(=O)C(O)C(=C1C)C2(C)C)C(NC(=O)OC(C)(C)C)c1ccccc1.CS(=O)(=O)O [Compound 23, 2′-O-[4-(N-methyl-N-ethyl)amino-2(R)-fluorobutyryl]docetaxel methanesulfonate] |  |  |  |  |  |  |  | −62% |  |  |  | 
11 | CCN(CC)CCC(F)C(=O)OC(C(=O)OC1CC2(O)C(OC(=O)c3ccccc3)C3C4(OC(C)=O)COC4CC(O)C3(C)C(=O)C(O)C(=C1C)C2(C)C)C(NC(=O)OC(C)(C)C)c1ccccc1.O=C(O)C=CC(=O)O [Compound 24, 2′-O-[4-(N,N-diethyl)amino-2(S)-fluorobutyryl]docetaxel maleate] |  |  |  |  |  |  |  | −52% |  |  |  | 120%
12 | CO[C@H]1C(=O)[C@]2(C)[C@@H](OC)C[C@H]3OC[C@@]3(OC(C)=O)[C@H]2[C@H](OC(=O)c2ccccc2)[C@]2(O)C[C@H](OC(=O)[C@H](OC(=O)C(F)CCN(C)C)[C@@H](NC(=O)OC(C)(C)C)c3ccccc3)C(C)=C1C2(C)C.CS(=O)(=O)O (stereo partly drawn) [Compound C9, 2′-O-[4-(N,N-dimethyl)amino-2(R,S)-fluorobutyryl] cabazitaxel methanesulfonate] | 49.3% | 88.6% | 100% | 81.2% | 96.7% | 100% | −66% |  |  |  |  | 
13 | CC(=O)O[C@@]12CO[C@@H]1C[C@H](O)[C@@]1(C)C(=O)[C@H](O)C3=C(C)[C@@H](OC(=O)[C@H](OC(=O)C(CCN(C)C)C(F)F)[C@@H](NC(=O)OC(C)(C)C)c4ccccc4)C[C@@](O)([C@@H](OC(=O)c4ccccc4)[C@H]21)C3(C)C.Cl (stereo partly drawn) [Compound 27, 2′-O-[4-(N,N-dimethyl)amino-2(R,S)-2-difluoromethylbutyryl]docetaxel hydrochloride] |  |  |  |  |  |  |  | −37% |  |  |  | 85%
